What all share (type): cell-based
In assay [1] the test system is Chrysosporium keratinophilum. Kind of assay: Agar plate disc-diffusion, antifungal activity by inhibition zone. As to conditions: Sabouraud's dextrose agar, 72 hours. The protocol: (§1) The agar plate disc-diffusion method was applied. Sterilized filter papers (6 mm in diameter) were wetted with 10 μL of a solution of 5-(2,4,5-tris(4-chlorophenyl)-1H-imidazol-1-yl)pentanoic acid (V) to be tested, containing 10 mg/mL in DMSO, and the discs were allowed to air dry. The discs were then placed onto the surface of agar plates (nutrient agar for bacteria and Sabouraud's dextrose agar for fungi) seeded with the test organism. Each plate contained 15 mL of the agar medium, previously seeded with 0.2 mL of the broth culture of each organism pregrown for 18 hours. The plates were incubated at 37° C. for 48 hours, and 72 hours for fungi. The inhibition zones was measured in mm. Discs impregnated with DMSO were used as a control, and its inhibition zone was subtracted from the tested compound actual inhibition zone.
(§2) Their antibacterial screened against gram positive bacteria namely Bacillus cereus and Staphylococcus aureus and gram-negative bacterial strains namely Pseudomonas aeruginosa and Escherichia coli, while their antifungal activity screened against Aspergillus flavus and Chrysosporium keratinophilum as shown in Table 1 and 2.

For another assay, the system named is Aspergillus flavus. Described as above. The conditions noted are these: Sabouraud's dextrose agar, 72 hours. The protocol: as §1, §2
Another assay deals with Pseudomonas aeruginosa. Kind of assay: Agar plate disc-diffusion, antibacterial activity by inhibition zone. The conditions noted are these: gram negative, nutrient agar, 37° C., 48 hours. How it is done: as §1, with “Sterilized filter papers (6 mm in diameter) were wetted with 10 μL of a solution of 5-(2,4,5-tris(4-chlorophenyl)-1H-imidazol-1-yl)pentanoic acid (V) to be tested, containing 10 mg/mL in DMSO, and the discs were allowed to air dry.” left out
as §2
In general terms: A growth-free zone around the sample is the usual read-out of agar diffusion tests.

The next assay concerns Escherichia coli. The description is as above. The conditions noted are these: gram negative, nutrient agar, 37° C., 48 hours. The protocol: as §1, with “Sterilized filter papers (6 mm in diameter) were wetted with 10 μL of a solution of 5-(2,4,5-tris(4-chlorophenyl)-1H-imidazol-1-yl)pentanoic acid (V) to be tested, containing 10 mg/mL in DMSO, and the discs were allowed to air dry.” left out
as §2

A further assay concerns Staphylococcus aureus. The assay is described as above. The conditions noted are these: gram positive, nutrient agar, 37° C., 48 hours. How it is done:
as §1, with “Sterilized filter papers (6 mm in diameter) were wetted with 10 μL of a solution of 5-(2,4,5-tris(4-chlorophenyl)-1H-imidazol-1-yl)pentanoic acid (V) to be tested, containing 10 mg/mL in DMSO, and the discs were allowed to air dry.” left out
as §2

In another assay the test system is Bacillus Cereus. The assay is described as above. As to conditions: gram positive, nutrient agar, 37° C., 48 hours. How it is done: as §1, with “Sterilized filter papers (6 mm in diameter) were wetted with 10 μL of a solution of 5-(2,4,5-tris(4-chlorophenyl)-1H-imidazol-1-yl)pentanoic acid (V) to be tested, containing 10 mg/mL in DMSO, and the discs were allowed to air dry.” left out
as §2

A further assay concerns different microbes. Kind of assay: Antimicrobial testing, overall statement. As to conditions: summary in words of Tables 1 and 2. The protocol:
as §1, §2

Setting [2] is: A = concentration of comp. = 10,000 μL.
[3] abbreviates: B = concentration of comp. = 30,000 μL.
Where [4] appears, read: C = concentration of comp. = 50,000 μL.

`O=C(O)c1cn(C2CC2)c2cc(N3CCNCC3)c(F)cc2c1=O` [Cip., reference compound]: the inhibition zone in assay [1] (setting [2]) worked out at 29 mm; in assay [1] (setting [3]) it was 30 mm; in assay [1] (setting [4]) it was 53 mm; in the assay with Aspergillus flavus (setting [2]), 29 mm; with Aspergillus flavus (setting [3]), 32 mm; in the assay with Aspergillus flavus (setting [4]) it was 42 mm. Further, the inhibition zone came out at 29 mm with Pseudomonas aeruginosa (setting [2]); 30 mm with Pseudomonas aeruginosa (setting [3]); 53 mm in the assay on Pseudomonas aeruginosa (setting [4]); 30 mm in the assay on Escherichia coli (setting [2]); 39 mm in the assay with Escherichia coli (setting [3]); 60 mm with Escherichia coli (setting [4]). Moreover, the inhibition zone in the assay with Staphylococcus aureus (setting [2]) is 42 mm; in the assay with Staphylococcus aureus (setting [3]) it was 44 mm; with Staphylococcus aureus (setting [4]), 53 mm; in the assay on Bacillus Cereus (setting [2]), 29 mm; with Bacillus Cereus (setting [3]) it was 31 mm; with Bacillus Cereus (setting [4]), 42 mm.
With `O=C(O)CCCCn1c(-c2ccc(Cl)cc2)nc(-c2ccc(Cl)cc2)c1-c1ccc(Cl)cc1` [V, 5-(2,4,5-tris(4-chlorophenyl)-1H-imidazol-1-yl)pentanoic acid], the inhibition zone is listed as 25 mm in assay [1] (setting [2]); 28 mm in assay [1] (setting [3]); 46 mm in assay [1] (setting [4]); 17 mm with Aspergillus flavus (setting [2]); 22 mm with Aspergillus flavus (setting [3]); 31 mm with Aspergillus flavus (setting [4]). The inhibition zone with Pseudomonas aeruginosa (setting [2]) was 25 mm; in the assay with Pseudomonas aeruginosa (setting [3]) it was 30 mm; in the assay on Pseudomonas aeruginosa (setting [4]) it was 43 mm; in the assay on Escherichia coli (setting [2]), 27 mm; with Escherichia coli (setting [3]), 35 mm; with Escherichia coli (setting [4]), 50 mm. The inhibition zone in the assay with Staphylococcus aureus (setting [2]) came out at 18 mm; in the assay with Staphylococcus aureus (setting [3]) it was 22 mm; in the assay on Staphylococcus aureus (setting [4]), 33 mm; in the assay with Bacillus Cereus (setting [2]), 23 mm; in the assay on Bacillus Cereus (setting [3]), 25 mm; in the assay on Bacillus Cereus (setting [4]), 37 mm. Also, the “antimicrobials activities against different microbes” value in the assay with different microbes is recorded as “excellent”.

Source of the values: patent US12122752B1, “5-(2,4,5-tris(4-chlorophenyl)-1H-imidazol-1-yl)pentanoic acid as an antimicrobial compound” (KING FAISAL UNIVERSITY, priority 2023, dated 2024).
